Experimental data reported in a melting point compilation (Tetko et al.; mined from patent text by program, amines drawn as free bases though some values may be those of a salt).

SMILES	melting point [°C]
CN(C)c1ccc(-c2nc(N(C)C)nnc2-c2ccc(F)cc2)cc1	157 to 160
CC1(C)CCC(C)(C)C(=O)C1=O	109 to 111
NS(=O)(=O)c1cccc(-c2cn(-c3cc(C(F)(F)F)cc(-c4ccc(C(F)(F)F)cc4)n3)cn2)c1	> 266
CNc1ncc(CO)c(NC2CC2)n1	139 to 140
CNC(=S)C1(c2cnc3ccccc3c2)CCCCC1=CC=O (stereo not given)	149 to 151
COc1ccc(S(=O)(=O)N2c3ccc(Br)cc3-c3ccccc3C2c2ccccc2)cc1Br (stereo not given)	205 to 207
CCc1nc(NC)sc1-c1ccncc1	146 to 149
COc1cc(C(C)=O)ccc1OC/C=C\CCl	64 to 66
N#CCc1nc(N)nc(N)c1-c1ccc(Cl)cc1Cl	249 to 251
N#CC(c1cccnc1)C1CCN(C(=O)CC(NC(=O)c2cccc(OCc3ccc4ccccc4n3)c2)c2ccccc2)CC1 (stereo not given)	91 to 97
COC(=O)[C@H](CC(=O)O)NC(=O)c1cccc(NC(=O)c2ccc(C(=N)N)cc2)c1	248 to 249
COC(=O)c1ncc(OCc2ccccn2)nc1NCc1ccc(OC)c(Cl)c1	132 to 133
CN1CC(Oc2ccc(Nc3cc(Br)cn(C)c3=O)nc2)C1	100 to 101
O=C(c1cccnn1)c1ccccc1Cl	105 to 107
O=C(O)Cc1cc(C(=O)Cc2c(F)cccc2Cl)ccc1O	240
O=C(NCC1CCCCC1)c1c(Cl)ccc2nc(N3CC(NCCO)C3)ccc12	150 to 151
Cc1cc2nc(C3(c4ccc(S(N)(=O)=O)cc4)C=C(C(F)(F)F)NN3)sc2cc1F (stereo not given)	224 to 225
N#Cc1ccc(CCCCCO)cc1	39 to 41
CC1=CC(OC(=O)c2ccc([N+](=O)[O-])cc2)C(O)C(C)(C)CC1=O (stereo not given)	151 to 152
CC1(C)NC(C[PH](=O)O)C(C)(C)S1 (stereo not given)	193 to 194
CC(C)c1c(C=C(Cl)Cl)c(-c2ccc(F)cc2)c2n1CCCC2	118 to 120
COc1nc(NN)c(C(F)(F)F)cc1Cl	140 to 142
O=C(Nc1cccnc1)c1ccc(OC(F)F)c2oc3ccc(C(F)(F)F)cc3c12	235 to 236
Cc1ccc(-c2ccc3c(c2)C=C(C(=O)Nc2ccc(CN(C)C4CCOCC4)cc2)CCO3)s1	129 to 130
CC(C)C1C(=O)C(C)(C)C(=O)N1c1ccc(C#N)c(Cl)c1 (stereo not given)	116 to 117

SMILES	melting point [°C]
COc1ccc(Nc2nc(NC3CCCCCC3)nc(Oc3ccccc3I)n2)cc1Cl	206 to 208
O=C(NCCc1ccc(O)cc1)OCc1ccccc1	96 to 98
O=C(O)C(Sc1ccc(Cl)cc1)c1ccc(Oc2ccccc2)cc1 (stereo not given)	121 to 125
c1ccc2cc(N3CCNCC3)ncc2c1	95 to 96
CC1(C)CON(Cc2ccc(NC(=O)Cc3ccccc3C(=O)O)cc2Cl)C1=O	194 to 196
O=[N+]([O-])c1nccn1COC(CO)CO	88
Cc1cn(C2CC(O)C(CNC(=O)c3ccc(Br)cc3)O2)c(=O)[nH]c1=O (stereo not given)	250 to 252
O=C(O)COc1ccc2cc(-c3oc4ccccc4c3C(=O)CC3CCCC3)ccc2c1	177 to 178
O=C(O)COC1Cc2sc(S(=O)(=O)C(c3ccccc3F)c3ccccc3F)nc2-c2ccccc21 (stereo not given)	204 to 208
COc1ccccc1CN=C(Cc1ccccc1)N1CC2C(=O)CCC(c3ccccc3)(c3ccccc3)C2C1 (stereo not given)	146
CCOC(Cc1ccc(NCCCC2=CCC(NS(C)(=O)=O)(OC(C)(C)C)C=C2)cc1)C(=O)O (stereo not given)	78 to 80
c1coc(CNc2nccc3ccccc23)c1	76 to 77
[O-][N+]1=C(c2ccccc2F)c2cc(Cl)ccc2-n2cnc(N3CCOCC3)c2C1	200 to 203
COC(=O)[C@H](c1ccccc1Cl)N1CCc2sc(OC(=O)N(C)C)cc2C1	96 to 98
O=C(c1cccs1)c1cnn2c(-c3cccc(NCc4ccc(Cl)cc4)c3)ccnc12	149 to 152
O=c1ssc(N2CCc3ccccc3CC2)c1Cl	141
CC(=O)c1cc([N+](=O)[O-])c(Cl)c([N+](=O)[O-])c1	86 to 86.5
Cc1nc(N2CCN(Cc3ccccc3)C2=O)sc1C(=O)NCc1cc(F)cc(F)c1	208 to 209
N#CCC(=O)Nc1ccc(S(=O)C(F)(F)F)cc1 (stereo not given)	164 to 165
CC(C)n1c(-c2ccccc2)cc(-c2ccc(F)cc2)c1C=O	118 to 122
COC1CCC(OS(C)(=O)=O)C(CN=[N+]=[N-])O1 (stereo not given)	54 to 56
Cc1cc(F)nc(-c2ccc(F)cc2)c1	49
Cn1ccnc1Sc1ccc(Nc2c(C#N)cnc3cc(-c4ccc(CN5CCOCC5)cc4)ccc23)cc1Cl	148 to 150
CC(C(=O)O)N(O)C(C)(C)C (stereo not given)	73 to 74
CCOC(=O)C(=Cc1cscc1OC)N=[N+]=[N-]	88 to 90

SMILES	melting point [°C]
COc1ccc2c3c(c(=O)oc2c1)CN(Cc1cccnc1)CC3	107 to 110
CC(C)(C)NC(=O)Nc1nc2nc(N)ncc2cc1-c1c(Cl)ccc(Cl)c1Cl	329 to 330
c1cnc2c(N3CCC(N4CCN(c5cccc6[nH]ccc56)CC4)CC3)cccc2c1	256
CCOC(=O)c1ccc(-c2ccc(O)cc2)cc1	144 to 146
CC1(C)c2cc(OS(C)(=O)=O)ccc2OC1N1CCCCC1 (stereo not given)	97 to 98
O=S(=O)(NCC1CCN(C[C@H]2COc3ccc(Cl)cc3O2)CC1)c1ccc(Cl)cc1	152 to 154
C[C@H](NC(=O)CCCCc1ccccc1)C(=O)N[C@H](CCC(=O)O)C(=O)O	135 to 140
CCN1C(=O)NC(c2ccc3ccccc3c2)c2cc3c(cc21)OCO3 (stereo not given)	193 to 195
O=C(O)C1CCCCc2c(-c3ccc(Cl)cc3)noc2C1 (stereo not given)	215
CC(Oc1ccc(Cl)cc1)c1nnc(N2C(=O)N(C)CC2O)s1 (stereo not given)	147 to 149
CCCCCC[C@@H]1C(=O)O[C@H]1OC(=O)N(CCCCC)c1ccccc1Oc1ccccc1 (relative stereo)	63.1 to 66.3
N#Cc1ccc(CC(NC(=O)C(Cc2ccccc2)S(=O)(=O)Nc2ccc3ccccc3c2)C(=O)N2CCCC2)cc1 (stereo not given)	206
CCC1(CC)c2cc(-c3nc4ccccc4s3)ccc2-c2ccc(N(c3cccc(OC)c3)c3cccc(OC)c3)cc21	178 to 180
CCOC(=O)C1(C(=O)OCC)OC(=O)c2ncccc2C1(O)c1ccccc1 (stereo not given)	146 to 147
COc1cc(N)c(Cl)cc1C(=O)OCC12CCCN(CCC1)C2	152 to 154
CCCCn1sc2nccn2c1=O	142 to 143
CCOc1ccc(Nc2c([N+](=O)[O-])cc([N+](=O)[O-])c(Cl)c2C(=O)O)cc1	202 to 206
COc1cc(/C=C/C(=O)Oc2ccc(NC(C)=O)cc2)ccc1OC(C)=O	246 to 250
CCOC(=O)C1CCn2c1cc(C)c2C(=O)c1ccc2n1CCS2 (stereo not given)	146 to 148
Fc1cccc(COc2ccc(I)cc2)c1	48
O[C@H]1c2cc(Oc3ccccn3)ccc2OC[C@H]1Cc1cccnc1 (relative stereo)	67 to 68
COc1cc(N)c(Cl)cc1C(=O)N[C@H]1CCNC[C@H]1OC (relative stereo)	184
IC#CCSc1ccncc1	140
CCOC(OCC)c1nc2sc(C)c(C)n2c(=O)c1C	84 to 85
CC(C)(C)CN1C(=O)[C@@H](CCO)O[C@H](c2ccccc2Cl)c2cc(Cl)ccc21 (relative stereo)	157 to 159

SMILES	melting point [°C]
CS(=O)(=O)CC(=O)Nc1ccccc1	140 to 141
COCCOC[C@H](CC1(C(=O)O)CCCC1)C(=O)Oc1ccc2c(c1)CCC2	111 to 113
C#CCc1c(-c2ccccc2)nc(C)[nH]c1=O	220 to 225
Cc1noc(NS(=O)(=O)c2ccccc2-c2ccc(-c3ncco3)cc2CCN(C)C(=O)Cc2ccccc2)c1C	98 to 106
O=C(Nc1cc(Cl)c(O)c(Cl)c1)c1cc(F)ccc1O	227 to 229
CN(CC#Cc1cc(CN2CCOCC2)cc2c(=O)c(C(=O)NCc3ccc(Cl)cc3)cn(C)c12)CCO	148 to 149
CC(=O)OCn1c(C(=O)OC(C)C)nc(Cl)c1Cl	81 to 82
Cc1cccc(Nc2cc(Cl)nc(SCC(=O)O)n2)c1C	146 to 151
CCc1c(C(=O)C(N)=O)c2c(OCC(=O)O)cccc2n1Cc1ccccc1	230 to 234
COc1ccc2c(c1)CCC1C2CCC2(C)C(O)C(C)CC12 (stereo not given)	100 to 102
O=C(O)c1ccc(CN2C(=O)c3ccc(C(=O)O)cc3C2=O)cc1	365 to 366
COc1ccc(C2=CC(=O)CCC2)cc1	83 to 85
COc1cc(N)c(Cl)cc1C(=O)NCCN1CCC2(CC1)C(=O)NCN2c1ccccc1	247
CC(C)(C)OC(=O)Cn1cc(Cl)c(-c2cc(Cl)cc(Cl)c2)n1	86
ClCCOc1cccc2nc[nH]c12	153 to 154
CCCCc1c(C(=O)c2ccc(OC)cc2)c2cc([N+](=O)[O-])ccc2n1C	168
O=c1[nH]c2cc(Cl)ccc2c(O)c1-c1cccc(Cc2ccc(O)cc2)c1	288 to 292
CC(=O)N(CCCC(=NNC(N)=S)c1ccc(F)cc1)C(C)C	155 to 157
ClC1(CN2c3ccccc3Sc3ccccc32)CN2CCC1CC2 (stereo not given)	156 to 160
COc1ccc(S(=O)(=O)N2CCc3cccc(-c4cccs4)c32)cc1	128 to 129
O=S(=O)(Nc1ccc(Cl)cc1C(=NOCc1ccc(Br)cc1)c1ccccc1)C(F)(F)F	55 to 56
CNC(=O)C(=O)CCCCCCS(=O)(=O)c1ccc2ccccc2c1	108 to 109
CN1CCN(c2ncc(-c3cnc4c(c3)N(Cc3c(F)ccc(F)c3Cl)CCN4)cn2)CC1	194 to 195
COC(=O)C1C2CCC(C2)C1N(C)S(=O)(=O)c1ccc(O)cc1 (stereo not given)	163 to 164
COc1cc2nc(S(=O)(=O)Nc3c(OC)ccnc3Cl)nn2c(OC)n1	197 to 199
